These compounds were tested on THP-1 viability, CellTiter-Glo luminescence, 72 h (assay: viability loss in THP-1 monocytes – THP-1 cells, cytotoxicity control for Vif-APOBEC3G degradation inhibitor project, dose response (AID 1117359)).
`CCOc1cc(CNc2ccc(O)cc2)ccc1OCc1ccc(Cl)cc1Cl` was tested, and the CC50 was 8.81 µM. In the case of `Oc1ccc(N=Cc2ccc(O)c(O)c2)cc1`, the CC50 is reported as 13 µM. In the case of `CCN=c1scc(C)n1/N=C/c1ccc(O)c(O)c1O`, the CC50 is reported as 19.9 µM. `O=[N+]([O-])c1c(NCCO)cc(Sc2nc3ccccc3s2)c2nonc12` was tested, and the CC50 was 17.9 µM. With `COC(C(=O)C(O)C(C)O)C1Cc2cc3cc(OC4CC(OC5CC(O)C(O)C(C)O5)C(O)C(C)O4)c(C)c(O)c3c(O)c2C(=O)C1OC1CC(OC2CC(OC3CC(O)C(OC)C(C)O3)C(O)C(C)O2)C(O)C(C)O1` (stereo not drawn) the CC50 was under 0.08 µM. For `Oc1ccc(/C=N/NP(=S)(c2ccccc2)c2ccccc2)c(O)c1O`, the CC50 was 38.3 µM. Work on `CSc1nc(N(CCO)CCO)c2sc3nc(-c4ccco4)c4c(c3c2n1)CCC4` yielded a CC50 of 19.8 µM. `CCOC(=O)C(C(=O)OCC)c1cc(Br)c2noc3c2c1C(=O)c1ccccc1-3` gave a CC50 of 9.78 µM.

Source: PubChem BioAssay AID1117359 (Southern Research Institute, 2015)
